In patent publication US12461092B2, “Screening method for APP cleavage activity-controlling substances of ADAMTS4” (SHIMADZU CORPORATION, priority 2019, dated 2025):

What was measured:
A549-ADAMTS4 KO cells = experiment: Aβ-related peptide production in culture supernatant of A549-ADAMTS4 KO cells by IP-MS (Example 1); format: cell-based, human; details: 25 μM, 96 hours, compared with DMSO control
Experimental: In A549 cells, an influence on production of APP669-x caused by ADAMTS4 knockout using CRISPR/Cas9 (clustered regularly interspaced short palindromic repeats/CRISPR associated proteins) and guide RNA (gRNA), and a treatment with GM6001, a metalloprotease inhibitor, was evaluated. A549 cell is human adenocarcinomic alveolar basal epithelial cell. The gRNA was designed using CRISPR Search (https://www.sanger.ac.uk/htgt/wge/find_crisprs).
Vectors in which cDNAs respectively encoding paired gRNAs targeting ADAMTS4 were inserted respectively into vector px335 (Addgene 042335) expressing SpCas9 nickase and gRNA and retrovirus-derived vector pBabe Puro U6 BbsI (donated by Professor Dario Alessi, Dundee University) were constructed.
These vectors were transfected, and the resultant transfectants were subjected to selection with puromycin for monocloning. A genome was extracted from each monoclonal cell, and a genome fragment including a gene region targeted by gRNA was amplified by PCR to be subjected to sanger sequencing. Primers used for amplifying the genome fragment were as follows: […]
As a result of analysis of a plurality of monoclonal cells, it was presumed that ADAMTS4 gene region of A549 cell has three alleles. Then, a monoclonal cell respectively having deletion of 16 bp, 29 bp and 20 bp in the gene region of ADAMTS4 gene as shown in FIG. 2 was obtained. Since none of these is a multiple of 3, it is presumed that normal ADAMTS4 protein is not expressed. Therefore, it was regarded that this cell is A549 cell having endogenous ADAMTS4 knockout (KO) (A549-ADAMTS4 KO cell).
A metalloprotease inhibitor, GM6001 (25 μM), or dimethylsulfoxide (DMSO) used as a control was added to each of A549-ADAMTS4 KO cells and A549-wild type (wt) cells, and the resultant cells were incubated for 96 hours. Thereafter, a culture supernatant was collected, and stored at −80° C. until measurement.
(§1) An Aβ-related peptide contained in the culture supernatant was measured by IP-MS corresponding to a combination of immunoprecipitation (IP) and mass spectrometry (MS). In IP, antibody immobilized beads obtained by covalent binding of anti-Aβ antibody clone 6E10 (BioLegend) to Dynabeads Epoxy (Thermo Fisher Scientific) were used.
The cryopreserved culture supernatant was thawed, and 250 μL of a reaction liquid containing internal standard peptides [800 mM GlcNAc, 0.2/a (w/v) NTM, 0.2% (w/v) DDM, 300 mM NaCl, and 100 mM Tris-HCl buffer (pH 7.4)] was mixed with 250 μL of the culture supernatant. The thus obtained mixture was mixed with the antibody immobilized beads, followed by an antigen antibody reaction at 4° C. for 1 hour. As the internal standard peptides, 22 μM stable isotope labeled Aβ1-38 and 100 μM stable isotope labeled A31-15 were used. […]

[1] = tested on: adenocarcinomic human alveolar basal epithelial cell A549; experiment: Aβ-related peptide production in culture supernatant of A549 cells by IP-MS (Example 4); format: cell-based; details: 96 hours, DMSO control
Experimental: as §1
(§2) The cryopreserved culture supernatant was thawed, and 250 μL of a reaction liquid containing internal standard peptides [800 mM GlcNAc, 0.2/a (w/v) NTM, 0.2% (w/v) DDM, 300 mM NaCl, and 100 mM Tris-HCl buffer (pH 7.4)] was mixed with 250 μL of the culture supernatant. The thus obtained mixture was mixed with the antibody immobilized beads, followed by an antigen antibody reaction at 4° C. for 1 hour. As the internal standard peptides, 22 μM stable isotope labeled Aβ1-38 and 100 μM stable isotope labeled A31-15 were used.
(§3) After the antigen antibody reaction, the antibody immobilized beads were washed with a first washing buffer [washed once with 100 μL of the first washing buffer (0.1% DDM, 0.1% NTM, 50 mM Tris-HCl (pH 7.4) and 150 mM NaCl), and then once with 50 μL of a 50 mM ammonium acetate buffer]. Thereafter, the Aβ-related peptide captured by the antibody immobilized beads was eluted with a glycine buffer containing DDM (50 mM glycine buffer containing 0.1% of DDM, pH 2.8). To the thus obtained eluate, Tris buffer containing DDM [800 mM GlcNAc, 0.2% (w/v) DDM, 300 mM NaCl, and 300 mM Tris-HCl buffer (pH 7.4)] was added to restore the pH to neutral (pH 7.4). Thereafter, the neutral eluate was contacted with the antibody immobilized beads at 4° C. for 1 hour again to cause the antigen antibody reaction of the Aβ-related peptide. The resultant was washed with a second washing buffer [washed twice with 100 μL of the second washing buffer (0.1% DDM, 150 mM Tris-HCl (pH 7.4), and 150 mM NaCl), and once with 50 μL of a 50 mM ammonium acetate buffer], and then, the Aβ-related peptide captured by the antibody immobilized beads was eluted with an eluent (5 mM HCl, 0.1 mM methionine, and 70% (v/v) acetonitrile). In this manner, each eluate containing the Aβ-related peptide was obtained through two-stage IP operation.
(§4) As a matrix for linear TOF, α-cyano-4-hydroxycinnamic acid (CHCA) was used. A matrix solution was prepared by dissolving 1 mg of CHCA in 1 mL of 70% (v/v) acetonitrile. As a matrix additive, 0.4% (w/v) methylenediphosphonic acid (MDPNA) was used. A 1 mg/mL CHCA solution and 0.4% (w/v) MDPNA were mixed in equivalent amounts to obtain a matrix/matrix additive solution [0.5 mg/mL CHCA/0.2% (w/v) MDPNA].
(§5) Precedently, 0.5 μL of the matrix/matrix additive solution was added in a dropwise manner into respective wells of μFocus MALDI Plate™ 900 μm (Hudson Surface Technology, Inc., Fort Lee, NJ), and then dried.
(§6) Each eluate resulting from IP was added in a dropwise manner into 4 wells of the μFocus MALDI Plate™ 900 μm, and then dried.
(§7) Mass spectral data was obtained by linear TOF in the positive ion mode using AXIMA Performance (Shimadzu/KRATOS, Manchester, UK). An m/z value of linear TOF was indicated as an average mass of peaks. The m/z value was calibrated using, as external standards, human angiotensin II, human ACTH fragment 18-39, bovine insulin oxidized beta-chain, and bovine insulin.
(§8) In the mass spectrum, signal intensity of each Aβ-related peptide was normalized using an internal standard peptide. Thereafter, an average of four normalized intensities obtained from one sample was obtained, which was evaluated as a production amount of the Aβ-related peptide. When there were two or more data not reaching a lower detection limit (S/N<3), it was regarded as undetectable.
(§9) A metalloprotease inhibitor, 25 μM GM6001 (Cosmobio) or 10 μM INCB3619 (NPL 8), was caused to act on, or DMSO was added as a control to human neuroblastoma BE(2)-C and adenocarcinomic human alveolar basal epithelial cell A549, and the resultant cells were incubated for 96 hours. […]

APP stable HEK cells = experiment: Aβ-related peptide production in culture supernatant of APP stable HEK cells by IP-MS (Example 4); format: cell-based, human; details: 25 μM
Experimental: As a matrix for linear TOF, α-cyano-4-hydroxycinnamic acid (CHCA) was used. A matrix solution was prepared by dissolving 1 mg of CHCA in 1 mL of 70% (v/v) acetonitrile. As a matrix additive, 0.4% (w/v) methylenediphosphonic acid (MDPNA) was used. […]
In the mass spectrum, signal intensity of each Aβ-related peptide was normalized using an internal standard peptide. Thereafter, an average of four normalized intensities obtained from one sample was obtained, which was evaluated as a production amount of the Aβ-related peptide. […]

[2] = tested on: human neuroblastoma BE(2)-C; experiment: Aβ-related peptide production in culture supernatant of BE(2)-C cells by IP-MS (Example 4); format: cell-based; details: for APP669 cleavage activity (on the N-terminal side): conclusion from BE(2)-C and A549 cells
Experimental: as §1, §2, §3, §4, §5, §6, §7, §8, §9

[3] = tested on: A549-wild type (wt) cells; experiment: Aβ-related peptide production in culture supernatant of A549-wt cells by IP-MS (Example 1); format: cell-based, human; details: 25 μM, 96 hours, compared with DMSO control
Experimental: After the antigen antibody reaction, the antibody immobilized beads were washed with a first washing buffer [washed once with 100 μL of the first washing buffer (0.1% DDM, 0.1% NTM, 50 mM Tris-HCl (pH 7.4) and 150 mM NaCl), and then once with 50 μL of a 50 mM ammonium acetate buffer]. Thereafter, the Aβ-related peptide captured by the antibody immobilized beads was eluted with a glycine buffer containing DDM (50 mM glycine buffer containing 0.1% of DDM, pH 2.8). To the thus obtained eluate, Tris buffer containing DDM [800 mM GlcNAc, 0.2% (w/v) DDM, 300 mM NaCl, and 300 mM Tris-HCl buffer (pH 7.4)] was added to restore the pH to neutral (pH 7.4). Thereafter, the neutral eluate was contacted with the antibody immobilized beads at 4° C. for 1 hour again to cause the antigen antibody reaction of the Aβ-related peptide. The resultant was washed with a second washing buffer [washed twice with 100 μL of the second washing buffer (0.1% DDM, 150 mM Tris-HCl (pH 7.4), and 150 mM NaCl), and once with 50 μL of a 50 mM ammonium acetate buffer], and then, the Aβ-related peptide captured by the antibody immobilized beads was eluted with an eluent (5 mM HCl, 0.1 mM methionine, and 70% (v/v) acetonitrile). In this manner, each eluate containing the Aβ-related peptide was obtained through two-stage IP operation. […]

[4] = BE(2)-C cells, 25 μM, 96 hours, DMSO control
[5] = BE(2)-C cells, 10 μM, 96 hours, DMSO control

CNC(=O)[C@H](Cc1c[nH]c2ccccc12)NC(=O)[C@@H](CC(=O)NO)CC(C)C [GM6001]
production amount of APP669-709 (Aβ(−3-38)) (A549-ADAMTS4 KO cells): tended to be decreased to substantially a half | production amount of APP669-711 (Aβ(−3-40)) (A549-ADAMTS4 KO cells): tended to be decreased to substantially a half | production amount of Aβ1-38 (A549-ADAMTS4 KO cells): tended to be rather increased | production amount of Aβ1-40 (A549-ADAMTS4 KO cells): tended to be rather increased | production amount of APP669-709 (Aβ(3-38)) ([1]; 25 μM): decreased | production amount of APP669-711 (Aβ(−3-40)) ([1]; 25 μM): decreased | production amount of Aβ1-38 ([1]; 25 μM): not decreased | production amount of Aβ1-40 ([1]; 25 μM): not decreased | production amount of APP669-709 (Aβ(3-38)) (APP stable HEK cells): decreased | production amount of APP669-711 (Aβ(−3-40)) (APP stable HEK cells): decreased | production amount of Aβ1-38 (APP stable HEK cells): not decreased | production amount of Aβ1-40 (APP stable HEK cells): not decreased | production amount of APP669-709 (Aβ(3-38)) [2, 4]: decreased | production amount of APP669-711 (Aβ(−3-40)) [2, 4]: decreased | production amount of Aβ1-38 [2, 4]: not decreased | production amount of Aβ1-40 [2, 4]: not decreased | APP669 cleavage activity (on the N-terminal side) ([2]; 25 μM): decreases | production amount of APP669-709 (Aβ(−3-38)) [3]: tended to be decreased to substantially a half | production amount of APP669-711 (Aβ(−3-40)) [3]: tended to be decreased to substantially a half | production amount of Aβ1-38 [3]: tended to be rather increased | production amount of Aβ1-40 [3]: tended to be rather increased

COC(=O)N1CC2(CC2)C[C@H](C(=O)NO)[C@H]1C(=O)N1CC=C(c2ccccc2)CC1 [INCB3619]
production amount of APP669-709 (Aβ(3-38)) ([1]; 10 μM): not changed | production amount of APP669-711 (Aβ(−3-40)) ([1]; 10 μM): not changed | production amount of APP669-709 (Aβ(3-38)) [2, 5]: rather slightly decreased | production amount of APP669-711 (Aβ(−3-40)) [2, 5]: rather slightly decreased | APP669 cleavage activity (on the N-terminal side) ([2]; 10 μM): low effect of decreasing
